Laboratory results: US20240270703A1, “HERBICIDAL COMPOUNDS” (SYNGENTA CROP PROTECTION AG, priority 2021, published 2024)

Key:
Format in all cases: in vivo
[1] = system: Amaranthus retroflexus (AMARE); assay: Herbicidal glasshouse test, POST application; conditions: 130 g/ha; evaluated after 14 days; 100=total damage to plant, 0=no damage to plant
[2] = system: Abutilon theophrasti (ABUTH); assay: Herbicidal glasshouse test, POST application; conditions: 130 g/ha; evaluated after 14 days; 100=total damage to plant, 0=no damage to plant
Setaria faberi (SETFA) [3] = assay: Herbicidal glasshouse test, POST application; conditions: 130 g/ha; evaluated after 14 days; 100=total damage to plant, 0=no damage to plant
[4] = system: Echinochloa crus-galli (ECHCG); assay: Herbicidal glasshouse test, POST application; conditions: 130 g/ha; evaluated after 14 days; 100=total damage to plant, 0=no damage to plant
Zea mays (ZEAMX) [5] = assay: Herbicidal glasshouse test, POST application (crop damage); conditions: 130 g/ha; evaluated after 14 days; 100=total damage to plant, 0=no damage to plant; maize crop
[6] = system: Abutilon theophrasti (ABUTH); assay: Herbicidal glasshouse test, PRE application; conditions: 130 g/ha; evaluated after 14 days; 100=total damage to plant, 0=no damage to plant
Description: (§1) Seeds of a variety of test species are sown in standard soil in pots (Lolium perenne (LOLPE), Amaranthus retroflexus (AMARE), Abutilon theophrasti (ABUTH), Setaria faberi (SETFA), Echinochloa crus-galli (ECHCG), Zea mays (ZEAMX)). After cultivation for one day under controlled conditions in a glasshouse (at 24/16° C., day/night; 14 hours light; 65% humidity), the plants were sprayed with an aqueous spray solution derived from the formulation of the technical active ingredient in 0.6 ml acetone and 45 ml formulation solution containing 10.6% Emulsogen EL (Registry number 61791-12-6), 42.2% N-methyl pyrrolidone, 42.2% dipropylene glycol monomethyl ether (CAS RN 34590-94-8) and 0.2% X-77 (CAS RN 11097-66-8).
(§2) The test plants were then grown in a glasshouse under controlled conditions in a glasshouse (at 24/16° C., day/night; 14 hours light; 65% humidity) and watered twice daily. After 14 days, the test was evaluated (100=total damage to plant; 0=no damage to plant, NC=data not captured). The compounds were applied at 130 g/ha unless otherwise stated.

[7] = system: Amaranthus retroflexus (AMARE); assay: Herbicidal glasshouse test, PRE application; conditions: 130 g/ha; evaluated after 14 days; 100=total damage to plant, 0=no damage to plant
Description: as §1, §2

[8] = system: Echinochloa crus-galli (ECHCG); assay: Herbicidal glasshouse test, PRE application; conditions: 130 g/ha; evaluated after 14 days; 100=total damage to plant, 0=no damage to plant
Description: as §1, §2

Setaria faberi (SETFA) [9] = assay: Herbicidal glasshouse test, PRE application; conditions: 130 g/ha; evaluated after 14 days; 100=total damage to plant, 0=no damage to plant
Description: as §1, §2

Zea mays (ZEAMX) [10] = assay: Herbicidal glasshouse test, PRE application (crop damage); conditions: 130 g/ha; evaluated after 14 days; 100=total damage to plant, 0=no damage to plant; maize crop
Description: as §1, §2

SMILES | damage to plant, AMARE, POST Application [1] | damage to plant, ABUTH, POST Application [2] | damage to plant, SETFA, POST Application (Setaria faberi (SETFA) [3]) | damage to plant, ECHCG, POST Application [4] | damage to plant, ZEAMX, POST Application (Zea mays (ZEAMX) [5]) | damage to plant, ABUTH, PRE Application [6] | damage to plant, AMARE, PRE Application [7] | damage to plant, ECHCG, PRE Application [8] | damage to plant, SETFA, PRE Application (Setaria faberi (SETFA) [9]) | damage to plant, ZEAMX, PRE Application (Zea mays (ZEAMX) [10])
Cn1nnnc1NC(=O)c1ccc(OC(F)(F)F)c(S(=O)(=O)NCC2CC2)c1Cl [Compound 1.001] | 100 | 80 | 20 | 60 | 0 | 100 | 100 | 20 | 0 | 0
CCNS(=O)(=O)c1c(OC(F)(F)F)ccc(C(=O)Nc2nnnn2C)c1Cl [Compound 1.002, 2-chloro-3-(ethylsulfamoyl)-N-(1-methyltetrazol-5-yl)-4-(trifluoromethoxy)benzamide] | 100 | 90 | 70 | 90 | 0 | 80 | 100 | 10 | 0 | 0
CN(C)S(=O)(=O)c1c(OC(F)(F)F)ccc(C(=O)Nc2nnnn2C)c1Cl [Compound 1.003] | 100 | 100 | 100 | 100 | 0 | 90 | 90 | 70 | 0 | 0
CNS(=O)(=O)c1c(OC(F)(F)F)ccc(C(=O)Nc2nnnn2C)c1Cl [Compound 1.004] | 80 | 80 | 80 | 80 | 10 | 100 | 100 | 90 | 90 | 0
CN(C)S(=O)(=O)c1c(OC(F)F)ccc(C(=O)Nc2nnnn2C)c1Cl [Compound 1.009] | 100 | – | 90 | 90 | 10 | – | 100 | 100 | 100 | 10
CCN(C)S(=O)(=O)c1c(OC(F)F)ccc(C(=O)Nc2nnnn2C)c1Cl [Compound 1.010] | 100 | – | 90 | 100 | 10 | – | 100 | 100 | 100 | 10
